Measurements as given in patent US9073820B2, “Pharmaceutical compositions comprising napthamides” (OREGON HEALTH & SCIENCE UNIVERSITY, priority 2011, dated 2015).

System: CREB-mediated gene transcription
Assay: CREB reporter (pCRE-RLuc) assay in HEK 293T cells, forskolin-stimulated
Format: cell-based
Protocol: HEK293T cells in a 10-cm plate were transfected with pCRE-RLuc (6.0 μg) using Lipofectamine™ 2000 (Invitrogen, Carlsbad, Calif.) according to manufacturer's protocol. After 3 h, the transfected cells were collected and replated into 96-well plates (1-2×10^4 cells/well). The cells were allowed to attach to the bottom of the wells for overnight, when compounds of different concentrations were added to the cells. Forskolin (final concentration of 10 μM, LC Laboratories, Woburn, Mass.) was added 30 min after the addition of the compounds. The cells were then incubated at 37° C. for 5 h. The media in the wells were removed and the cells were then lysed in 30 μL of 1×Renilla luciferase lysis buffer (Promega, Madison, Wis.). To measure Renilla luciferase activity, five μL of the lysate was combined with 30 μL of benzyl-coelenterazine (Nanolight, Pinetop, Ariz.) solution in PBS (pH 7.4, 10 μg/mL). The sample protein concentration was determined by Dye Reagent Concentrate (Bio-Rad, Hercules, Calif.). The Renilla luciferase activity was normalized to protein content in each well and expressed as relative luciferase unit/μg protein (RLU/μg protein). The IC50 was derived from non-linear regression analysis of the RLU/μg protein-concentration curve in Prism 5.0 (La Jolla, Calif.).

SMILES: NCCCOc1cc2ccccc2cc1C(=O)NCCCOc1cc2ccccc2cc1C(=O)Nc1ccc(Cl)cc1O [Compound 4]
- CREB-mediated gene transcription in HEK 293T cells (in words) (HEK 293T cells): inhibited
- IC50 (Homo sapiens, HEK-293T, 5 h, read-out: CREB reporter inhibition (IC50)): 2220 ± 380 nM
